Reference: PubChem BioAssay AID1963842 (Molecular Pharmacology Branch, DTP, NCI, 2024)

Test system: 677734-321-R-J1-PDC complex spheroid viability
Test: Anticancer human tumor 677734-321-R-J1-PDC patient-derived soft tissue sarcoma cell line growth inhibition [POLQ]
Conditions: for IC50: curve of first compound; for viability, T/C: stronger effect = lower value
Outline: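 Growth inhibition in 3D: complex spheroids (tumor PDC, HUVEC, MSC) treated with POLQ inhibitor combinations; where Cmax unknown, highest tested concentration 10 microM, except SN-38 at 1 microM.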

[1] = second compound 0.0316 µM, first compound 0.00316 µM
[2] = second compound 0.0316 µM, first compound 0.01 µM
[3] = second compound 0.0316 µM, first compound 0.0316 µM
[4] = second compound 0.0316 µM, first compound 0.1 µM
[5] = second compound 0.1 µM, first compound 0.00316 µM
[6] = second compound 0.1 µM, first compound 0.01 µM
[7] = second compound 0.1 µM, first compound 0.0316 µM
[8] = second compound 0.1 µM, first compound 0.1 µM
[9] = second compound 0.316 µM, first compound 0.00316 µM
[10] = second compound 0.316 µM, first compound 0.01 µM
[11] = second compound 0.316 µM, first compound 0.0316 µM
[12] = second compound 0.316 µM, first compound 0.1 µM
[13] = second compound 1 µM, first compound 0.00316 µM
[14] = second compound 1 µM, first compound 0.01 µM
[15] = second compound 1 µM, first compound 0.0316 µM
[16] = second compound 1 µM, first compound 0.1 µM
[17] = second compound 3.16 µM, first compound 0.00316 µM
[18] = second compound 3.16 µM, first compound 0.01 µM
[19] = second compound 3.16 µM, first compound 0.0316 µM
[20] = second compound 3.16 µM, first compound 0.1 µM
[21] = second compound 10 µM, first compound 0.00316 µM
[22] = second compound 10 µM, first compound 0.01 µM
[23] = second compound 10 µM, first compound 0.0316 µM
[24] = second compound 10 µM, first compound 0.1 µM
[25] = second compound 0.0316 µM, first compound 0.316 µM
[26] = second compound 0.0316 µM, first compound 1 µM
[27] = second compound 0.1 µM, first compound 0.316 µM
[28] = second compound 0.1 µM, first compound 1 µM
[29] = second compound 0.316 µM, first compound 0.316 µM
[30] = second compound 0.316 µM, first compound 1 µM
[31] = second compound 1 µM, first compound 0.316 µM
[32] = second compound 1 µM, first compound 1 µM
[33] = second compound 3.16 µM, first compound 0.316 µM
[34] = second compound 3.16 µM, first compound 1 µM
[35] = second compound 10 µM, first compound 0.316 µM
[36] = second compound 10 µM, first compound 1 µM
[37] = second compound 0.0316 µM, first compound 3.16 µM
[38] = second compound 0.0316 µM, first compound 10 µM
[39] = second compound 0.1 µM, first compound 3.16 µM
[40] = second compound 0.1 µM, first compound 10 µM
[41] = second compound 0.316 µM, first compound 3.16 µM
[42] = second compound 0.316 µM, first compound 10 µM
[43] = second compound 1 µM, first compound 3.16 µM
[44] = second compound 1 µM, first compound 10 µM
[45] = second compound 3.16 µM, first compound 3.16 µM
[46] = second compound 3.16 µM, first compound 10 µM
[47] = second compound 10 µM, first compound 3.16 µM
[48] = second compound 10 µM, first compound 10 µM
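Also: spheroids exposed to compounds for one week.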
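For viability, T/C in this document: 100% = vehicle DMSO treated spheroids.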

CC[C@@]1(O)C(=O)OCc2c1cc1n(c2=O)Cc2cc3c(CN(C)C)c(O)ccc3nc2-1 + Cc1cccc(N(C)C(=O)C2C(O)CCN2c2nc(C)cc(C(F)(F)F)c2C#N)c1
IC50 (second compound 0.0316 µM): 0.0262 µM | IC50 (second compound 0.1 µM): 0.0262 µM | IC50 (second compound 0.316 µM): 0.023 µM | IC50 (second compound 1 µM): 0.0275 µM | IC50 (second compound 3.16 µM): 0.0243 µM | IC50 (second compound 10 µM): 0.0253 µM | viability, T/C (second compound 0.0316 µM, first compound 0.000316 µM): 104% | viability, T/C (second compound 0.0316 µM, first compound 0.001 µM): 105% | viability, T/C [1]: 102% | viability, T/C [2]: 102% | viability, T/C [3]: 39.4% | viability, T/C [4]: 15.8% | viability, T/C (second compound 0.1 µM, first compound 0.000316 µM): 103% | viability, T/C (second compound 0.1 µM, first compound 0.001 µM): 113% | viability, T/C [5]: 108% | viability, T/C [6]: 99.9% | viability, T/C [7]: 40.2% | viability, T/C [8]: 21.1% | viability, T/C (second compound 0.316 µM, first compound 0.000316 µM): 112% | viability, T/C (second compound 0.316 µM, first compound 0.001 µM): 112% | viability, T/C [9]: 100% | viability, T/C [10]: 91.3% | viability, T/C [11]: 34.1% | viability, T/C [12]: 17.8% | viability, T/C (second compound 1 µM, first compound 0.000316 µM): 124% | viability, T/C (second compound 1 µM, first compound 0.001 µM): 96.4% | viability, T/C [13]: 105% | viability, T/C [14]: 100% | viability, T/C [15]: 42.2% | viability, T/C [16]: 17.6% | viability, T/C (second compound 3.16 µM, first compound 0.000316 µM): 120% | viability, T/C (second compound 3.16 µM, first compound 0.001 µM): 100% | viability, T/C [17]: 109% | viability, T/C [18]: 94.1% | viability, T/C [19]: 37% | viability, T/C [20]: 17.5% | viability, T/C (second compound 10 µM, first compound 0.000316 µM): 108% | viability, T/C (second compound 10 µM, first compound 0.001 µM): 100% | viability, T/C [21]: 98.2% | viability, T/C [22]: 91.9% | viability, T/C [23]: 39.8% | viability, T/C [24]: 23.2%

CCc1c2c(nc3ccc(O)cc13)-c1cc3c(c(=O)n1C2)COC(=O)[C@]3(O)CC + Nc1ccc(C#CCN(C(=O)Cc2ncc(C(F)(F)F)cc2C(F)(F)F)c2ccc(F)cc2)nn1
IC50 (second compound 0.0316 µM): < 0.00316 µM | IC50 (second compound 0.1 µM): < 0.00316 µM | IC50 (second compound 0.316 µM): < 0.00316 µM | IC50 (second compound 1 µM): < 0.00316 µM | IC50 (second compound 3.16 µM): < 0.00316 µM | IC50 (second compound 10 µM): < 0.00316 µM | viability, T/C [1]: 22.2% | viability, T/C [2]: 10.8% | viability, T/C [3]: 5.47% | viability, T/C [4]: 4.82% | viability, T/C [25]: 4.02% | viability, T/C [26]: 1.51% | viability, T/C [5]: 19.4% | viability, T/C [6]: 9.07% | viability, T/C [7]: 6.31% | viability, T/C [8]: 5.31% | viability, T/C [27]: 3.85% | viability, T/C [28]: 1.25% | viability, T/C [9]: 24.3% | viability, T/C [10]: 10.8% | viability, T/C [11]: 5.47% | viability, T/C [12]: 4.33% | viability, T/C [29]: 3.5% | viability, T/C [30]: 1.28% | viability, T/C [13]: 22.5% | viability, T/C [14]: 10.8% | viability, T/C [15]: 5.38% | viability, T/C [16]: 5.22% | viability, T/C [31]: 4.16% | viability, T/C [32]: 1.16% | viability, T/C [17]: 22.5% | viability, T/C [18]: 8.9% | viability, T/C [19]: 5.24% | viability, T/C [20]: 4.43% | viability, T/C [33]: 5.24% | viability, T/C [34]: 1.3% | viability, T/C [21]: 25.9% | viability, T/C [22]: 11% | viability, T/C [23]: 6.72% | viability, T/C [24]: 4.78% | viability, T/C [35]: 3.27% | viability, T/C [36]: 1.35%

CCCS(=O)(=O)Nc1ccc(F)c(C(=O)c2c[nH]c3ncc(-c4ccc(Cl)cc4)cc23)c1F + Cc1cccc(N(C)C(=O)C2C(O)CCN2c2nc(C)cc(C(F)(F)F)c2C#N)c1
IC50 (second compound 0.0316 µM): 4.25 µM | IC50 (second compound 0.1 µM): 3.82 µM | IC50 (second compound 0.316 µM): 3.99 µM | IC50 (second compound 1 µM): 3.12 µM | IC50 (second compound 3.16 µM): 2.92 µM | IC50 (second compound 10 µM): 2 µM | viability, T/C [3]: 104% | viability, T/C [4]: 105% | viability, T/C [25]: 108% | viability, T/C [26]: 99.8% | viability, T/C [37]: 65.3% | viability, T/C [38]: 5.8% | viability, T/C [7]: 94.5% | viability, T/C [8]: 87.3% | viability, T/C [27]: 100% | viability, T/C [28]: 86.4% | viability, T/C [39]: 59.1% | viability, T/C [40]: 4.58% | viability, T/C [11]: 90.7% | viability, T/C [12]: 101% | viability, T/C [29]: 89.1% | viability, T/C [30]: 96% | viability, T/C [41]: 61.9% | viability, T/C [42]: 3.41% | viability, T/C [15]: 101% | viability, T/C [16]: 93.2% | viability, T/C [31]: 79.6% | viability, T/C [32]: 108% | viability, T/C [43]: 49.4% | viability, T/C [44]: 2.83% | viability, T/C [19]: 94.1% | viability, T/C [20]: 84.6% | viability, T/C [33]: 94% | viability, T/C [34]: 98.4% | viability, T/C [45]: 46.8% | viability, T/C [46]: 2.44% | viability, T/C [23]: 80.1% | viability, T/C [24]: 71.7% | viability, T/C [35]: 80.6% | viability, T/C [36]: 83.3% | viability, T/C [47]: 30.8% | viability, T/C [48]: 0.79%

Nc1ccn(C2OC(CO)C(O)C2(F)F)c(=O)n1 (stereo not drawn) + Cc1cccc(N(C)C(=O)C2C(O)CCN2c2nc(C)cc(C(F)(F)F)c2C#N)c1
IC50 (second compound 0.0316 µM): < 0.0316 µM | IC50 (second compound 0.1 µM): < 0.0316 µM | IC50 (second compound 0.316 µM): < 0.0316 µM | IC50 (second compound 1 µM): < 0.0316 µM | IC50 (second compound 3.16 µM): < 0.0316 µM | IC50 (second compound 10 µM): < 0.0316 µM | viability, T/C [3]: 38.5% | viability, T/C [4]: 15.2% | viability, T/C [25]: 14.2% | viability, T/C [26]: 14.7% | viability, T/C [37]: 14.9% | viability, T/C [38]: 10.1% | viability, T/C [7]: 43.5% | viability, T/C [8]: 15.1% | viability, T/C [27]: 13.7% | viability, T/C [28]: 15.4% | viability, T/C [39]: 15.8% | viability, T/C [40]: 11% | viability, T/C [11]: 31.8% | viability, T/C [12]: 22% | viability, T/C [29]: 14.1% | viability, T/C [30]: 16.9% | viability, T/C [41]: 12.4% | viability, T/C [42]: 10.8% | viability, T/C [15]: 30.9% | viability, T/C [16]: 18.4% | viability, T/C [31]: 14.3% | viability, T/C [32]: 15.4% | viability, T/C [43]: 19.6% | viability, T/C [44]: 12% | viability, T/C [19]: 35.2% | viability, T/C [20]: 14.9% | viability, T/C [33]: 14.6% | viability, T/C [34]: 13.5% | viability, T/C [45]: 13.3% | viability, T/C [46]: 13% | viability, T/C [23]: 39.8% | viability, T/C [24]: 17.3% | viability, T/C [35]: 15.3% | viability, T/C [36]: 13.7% | viability, T/C [47]: 13.3% | viability, T/C [48]: 12.2%
